These results are taken from patent US20250195533A1, “COMBINATION THERAPIES FOR THE TREATMENT OF CANCER” (Erasca, Inc., priority 2020, published 2025).

In assay [1] the test system is NCI-H2122 cells. The assay is described as follows: CellTiter-Glo cellular proliferation/viability assay, fixed concentration of KRAS G12C inhibitor. Particulars: Homo sapiens, NCI-H2122, 120 h, compound of Formula I alone, 5 days, read-out: 2D CTG IC50. In kind it is cell-based. For orientation: In ATP-based viability assays light output follows the ATP content of the culture.

Assay [2] concerns NCI-H358 cells. The assay is described as above. Particulars: Homo sapiens, 120 h, compound of Formula I alone, 5 days, read-out: 2D CTG IC50. The format is cell-based. An excerpt: The combination was studied by a cell viability assay. NCI-H358 cells were split onto a 96-well plate.

As a reminder, the IC50 is the concentration at which inhibition is half-maximal. Take `COCOC[C@H]1C[C@H]2COc3c(Sc4cnc(N5CCC6(CC5)CO[C@@H](C)[C@H]6N)c(CO)n4)ccnc3N2C1` [The compound of Formula I]: the values for the IC50 in assay [1] and in assay [2] were 2780 nM and 168 nM, respectively.
